Source: publication PMC12155096 (International Journal of Molecular Sciences, 2025)
Counter-ions that a name gives are not always drawn. Like-named read-outs stand apart in the source and are kept apart here.

How the values were obtained:
Test in all cases: biochemical; call rule not given here
[1] = target: human CYP2C19 (Homo sapiens, UniProt P33261)
[2] = target: human CYP2C9 (Homo sapiens, UniProt P11712)
[3] = target: T1, human CYP1A2 (Homo sapiens, UniProt P05177)
T1 sequence (P05177 1-516): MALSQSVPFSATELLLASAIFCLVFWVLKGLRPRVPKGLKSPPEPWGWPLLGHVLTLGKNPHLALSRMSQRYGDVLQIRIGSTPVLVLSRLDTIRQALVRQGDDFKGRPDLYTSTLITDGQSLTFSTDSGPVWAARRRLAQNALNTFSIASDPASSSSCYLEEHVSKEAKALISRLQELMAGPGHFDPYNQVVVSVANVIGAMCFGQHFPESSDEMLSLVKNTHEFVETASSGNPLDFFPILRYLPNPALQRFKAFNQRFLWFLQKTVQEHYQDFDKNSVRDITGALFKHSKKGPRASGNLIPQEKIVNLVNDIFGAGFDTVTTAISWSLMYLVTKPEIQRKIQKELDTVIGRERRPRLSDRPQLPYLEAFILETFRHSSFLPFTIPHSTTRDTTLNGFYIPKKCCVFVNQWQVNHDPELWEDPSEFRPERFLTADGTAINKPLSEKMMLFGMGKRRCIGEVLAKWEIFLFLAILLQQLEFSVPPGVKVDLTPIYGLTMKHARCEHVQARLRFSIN

[4] = target: CYP3A4 (Homo sapiens, UniProt P08684)
CYP3A4, sequence (P08684 whole entry): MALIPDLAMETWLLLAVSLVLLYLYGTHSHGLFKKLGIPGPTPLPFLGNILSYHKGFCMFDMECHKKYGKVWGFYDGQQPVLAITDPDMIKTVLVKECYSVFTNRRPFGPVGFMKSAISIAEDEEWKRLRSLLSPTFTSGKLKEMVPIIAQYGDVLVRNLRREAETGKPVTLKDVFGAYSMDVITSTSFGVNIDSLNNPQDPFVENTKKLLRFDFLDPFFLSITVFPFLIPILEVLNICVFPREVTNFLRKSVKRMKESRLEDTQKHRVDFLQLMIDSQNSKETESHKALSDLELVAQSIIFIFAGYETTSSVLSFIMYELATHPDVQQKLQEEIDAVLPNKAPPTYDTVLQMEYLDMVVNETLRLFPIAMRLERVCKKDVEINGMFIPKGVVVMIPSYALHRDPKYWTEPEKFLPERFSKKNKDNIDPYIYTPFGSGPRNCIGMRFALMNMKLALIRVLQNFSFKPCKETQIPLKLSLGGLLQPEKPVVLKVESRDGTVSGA

[5] = target: human CYP2D6 (Homo sapiens, UniProt P10635)
human CYP2D6, sequence (P10635 whole entry): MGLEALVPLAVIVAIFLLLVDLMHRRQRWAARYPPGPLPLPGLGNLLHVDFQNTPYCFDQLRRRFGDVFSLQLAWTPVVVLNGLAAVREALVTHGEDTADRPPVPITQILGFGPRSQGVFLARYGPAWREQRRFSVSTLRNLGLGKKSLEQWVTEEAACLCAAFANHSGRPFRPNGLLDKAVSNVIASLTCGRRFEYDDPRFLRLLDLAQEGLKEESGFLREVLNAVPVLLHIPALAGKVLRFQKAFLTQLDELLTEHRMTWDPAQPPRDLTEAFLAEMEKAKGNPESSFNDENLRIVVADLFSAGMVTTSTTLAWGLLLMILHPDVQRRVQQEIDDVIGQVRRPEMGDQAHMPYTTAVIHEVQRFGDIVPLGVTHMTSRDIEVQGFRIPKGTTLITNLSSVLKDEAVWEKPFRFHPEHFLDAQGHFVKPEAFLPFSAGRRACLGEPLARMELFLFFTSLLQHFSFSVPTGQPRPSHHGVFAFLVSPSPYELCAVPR

[6] = target: Photinus pyralis (firefly) luciferase (Photinus pyralis, UniProt P08659); format: biochemical
Photinus pyralis (firefly) luciferase, sequence (P08659 whole entry): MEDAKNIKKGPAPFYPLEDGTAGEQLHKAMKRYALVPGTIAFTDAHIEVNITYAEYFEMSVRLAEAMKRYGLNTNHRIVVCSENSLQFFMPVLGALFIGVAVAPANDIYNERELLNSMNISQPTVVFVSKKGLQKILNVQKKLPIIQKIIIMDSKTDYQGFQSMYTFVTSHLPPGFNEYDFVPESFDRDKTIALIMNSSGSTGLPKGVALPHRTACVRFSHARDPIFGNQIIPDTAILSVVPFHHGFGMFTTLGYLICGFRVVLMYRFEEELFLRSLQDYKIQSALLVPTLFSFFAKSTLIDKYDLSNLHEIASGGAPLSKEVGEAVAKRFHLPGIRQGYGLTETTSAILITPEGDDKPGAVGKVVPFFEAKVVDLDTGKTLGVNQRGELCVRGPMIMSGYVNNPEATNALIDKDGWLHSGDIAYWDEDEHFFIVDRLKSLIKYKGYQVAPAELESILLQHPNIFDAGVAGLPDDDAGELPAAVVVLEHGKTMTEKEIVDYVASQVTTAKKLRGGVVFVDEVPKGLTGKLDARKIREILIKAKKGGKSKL

[7] = CYP2C19 IC50 (half-maximal inhibitory concentration)
[8] = CYP2C9 IC50 (half-maximal inhibitory concentration)
[9] = CYP1A2 IC50 (half-maximal inhibitory concentration)
[10] = CYP3A4 IC50 (half-maximal inhibitory concentration)
[11] = CYP2D6 IC50 (half-maximal inhibitory concentration)

human CYP2C19, sequence (P33261 whole entry): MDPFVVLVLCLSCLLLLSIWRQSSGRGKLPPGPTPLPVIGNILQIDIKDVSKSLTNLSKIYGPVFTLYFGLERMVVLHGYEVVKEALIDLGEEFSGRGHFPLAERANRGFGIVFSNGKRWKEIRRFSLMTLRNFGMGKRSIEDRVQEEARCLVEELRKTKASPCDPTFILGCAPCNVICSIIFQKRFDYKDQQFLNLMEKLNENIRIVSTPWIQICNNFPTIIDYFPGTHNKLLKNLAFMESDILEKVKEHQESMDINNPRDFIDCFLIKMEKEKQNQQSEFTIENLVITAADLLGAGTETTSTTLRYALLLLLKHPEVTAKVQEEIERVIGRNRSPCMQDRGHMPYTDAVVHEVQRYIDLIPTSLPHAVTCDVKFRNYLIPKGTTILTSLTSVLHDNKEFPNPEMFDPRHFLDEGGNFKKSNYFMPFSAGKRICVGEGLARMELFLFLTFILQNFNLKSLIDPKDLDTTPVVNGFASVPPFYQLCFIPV
human CYP2C9, sequence (P11712 whole entry): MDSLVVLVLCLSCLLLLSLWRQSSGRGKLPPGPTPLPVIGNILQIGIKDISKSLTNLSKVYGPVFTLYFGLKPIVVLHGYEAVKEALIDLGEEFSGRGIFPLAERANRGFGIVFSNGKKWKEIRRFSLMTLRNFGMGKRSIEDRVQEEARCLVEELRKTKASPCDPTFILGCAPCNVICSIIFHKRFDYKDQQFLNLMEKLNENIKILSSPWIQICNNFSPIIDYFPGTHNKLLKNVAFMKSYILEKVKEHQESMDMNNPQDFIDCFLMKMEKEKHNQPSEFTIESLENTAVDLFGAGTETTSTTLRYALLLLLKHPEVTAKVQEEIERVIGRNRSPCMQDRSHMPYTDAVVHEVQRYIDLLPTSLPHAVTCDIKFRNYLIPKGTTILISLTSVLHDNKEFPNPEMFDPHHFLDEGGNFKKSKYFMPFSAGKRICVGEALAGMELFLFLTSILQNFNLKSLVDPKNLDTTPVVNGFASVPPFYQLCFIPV

| SMILES | IC50 [1, 7] | IC50 [2, 8] | IC50 [3, 9] | IC50 [4, 10] | IC50 [5, 11] | Luciferase IC50 (half-maximal inhibitory concentration) [6] | further results |
| --- | --- | --- | --- | --- | --- | --- | --- |
| Nc1ccc2c(c1)C(=O)c1ccccc1C2=O [2-Aminoanthraquinone] | 14 µM | 22.5 µM | 0.2 µM | 1.64 µM | 41.4 µM |  | IC50 [6]: 2.67 µM |
| Cc1cc(-c2ccc(N)c(C)c2)ccc1N [3,3'-Dimethylbenzidine] |  |  |  |  |  |  | IC50 ([1]; CYP2C19 IC50): 6.24 µM; IC50 [2]: 23.4 µM; IC50 ([3]; CYP1A2 IC50): 0.47 µM; IC50 ([3]; IC50 CYP1A2 assay): 0.64 µM; IC50 ([4]; CYP3A4 IC50): 10.6 µM; IC50 [5]: 3.41 µM; IC50 [6]: 76.3 µM |
| CN(C)c1ccc(Cc2ccc(N(C)C)cc2)cc1 [4,4'-Methylenebis(N,N-dimethylaniline)] | 0.22 µM | 25.5 µM | 4.55 µM | 19.9 µM | 40.1 µM | Inactive |  |
| Cc1cc(O)c(C(C)(C)C)cc1Sc1cc(C(C)(C)C)c(O)cc1C [4,4'-Thiobis(6-tert-butyl-m-cresol)] | 0.38 µM | 4.21 µM | 40 µM | 7.29 µM | 24.4 µM | Inactive |  |
| c1ccc(CCCc2ccncc2)cc1 [4-(3-Phenylpropyl)pyridine] |  |  |  |  |  |  | IC50 [1]: 0.7 µM; IC50 [2]: 1.86 µM; IC50 [3]: 1.14 µM; IC50 [4]: 0.43 µM; IC50 [5]: 3.93 µM; IC50 [6]: 55.3 µM |
| OCc1c2ccccc2cc2ccccc12 [9-Anthracenemethanol] | 26.1 µM | 27.6 µM | 0.7 µM | 29.8 µM | 60.1 µM |  | IC50 [6]: 68.7 µM |
| ClC1=C(Cl)C2(Cl)C3C4C=CC(C4)C3C1(Cl)C2(Cl)Cl (stereo not drawn) [Aldrin] |  |  |  |  |  |  | IC50 ([1]; CYP2C19 IC50): 27.8 µM; IC50 ([2]; CYP2C9 IC50): 33.6 µM; IC50 ([3]; CYP1A2 IC50): 35.5 µM; IC50 ([4]; CYP3A4 IC50): 0.28 µM; IC50 ([5]; CYP2D6 IC50): 44.9 µM; Luciferase IC50 [6]: Inactive |
| CC(C)(C)C(O)C(Oc1ccc(-c2ccccc2)cc1)n1cncn1 (stereo not drawn) [Bitertanol] | 48.3 µM | 7.56 µM | 48.8 µM | 0.67 µM | 63.5 µM | Inactive |  |
| Clc1ccc(C2(Cn3cncn3)CC(Br)CO2)c(Cl)c1 (stereo not drawn) [Bromuconazole] | 0.12 µM | 3.35 µM | 21.7 µM | 0.08 µM | 21 µM | Inactive |  |
| CCCCOCN(C(=O)CCl)c1c(CC)cccc1CC [Butachlor] | 0.83 µM | 5.09 µM | 51.6 µM | 6.9 µM | 50.9 µM | Inactive |  |
| CCOCn1c(-c2ccc(Cl)cc2)c(C#N)c(Br)c1C(F)(F)F [Chlorfenapyr] | 4.66 µM | 9.71 µM | 0.6 µM | 37 µM | 33 µM | Inactive |  |
| O=C1c2ccccc2C(=O)C1C(=O)C(c1ccccc1)c1ccc(Cl)cc1 (stereo not drawn) [Chlorophacinone] | 11 µM | 0.76 µM | 8.52 µM | 33.6 µM | 44.9 µM | Inactive | AC50 ([1]; CYP2C19 AC50 (half-maximal activity concentration)): 11 µM; AC50 ([2]; CYP2C9 AC50 (half-maximal activity concentration)): 0.76 µM; AC50 ([3]; CYP1A2 AC50 (half-maximal activity concentration)): 8.52 µM; AC50 ([4]; CYP3A4 AC50 (half-maximal activity concentration)): 33.6 µM; AC50 ([5]; CYP2D6 AC50 (half-maximal activity concentration)): 44.9 µM |
| CCOP(=S)(OCC)SC(CCl)N1C(=O)c2ccccc2C1=O (stereo not drawn) [Dialifor] | 0.38 µM |  | 68.4 µM | 1.65 µM |  | Inactive | IC50 [2]: 1.13 µM; IC50 [5]: 38.5 µM |
| CC1COC(Cn2cncn2)(c2ccc(Oc3ccc(Cl)cc3)cc2Cl)O1 (stereo not drawn) [Difenoconazole] | 0.08 µM | 1.22 µM | 27.4 µM | 0.08 µM | 34.4 µM | Inactive |  |
| CC(C(O)c1ccccc1)N(C)CCOC(c1ccccc1)c1ccccc1 (stereo not drawn) [Difeterol] |  |  |  |  |  | Inactive | IC50 [1]: 7.12 ± 1.98 µM; IC50 [2]: 16.8 ± 1.09 µM; IC50 [3]: 23.5 ± 5.69 µM; IC50 [4]: 0.62 ± 0.07 µM; IC50 [5]: 0.11 ± 0.06 µM |
| CCOP(=S)(OCC)SCCS(=O)(=O)CC [Disulfoton sulfone] | 0.3 µM |  | 26 µM | 2.61 µM |  | Inactive | IC50 [2]: 1.64 µM; IC50 [5]: 13.4 µM |
| CCCCCCCCCCCCN [Dodecylamine hydrochloride] |  |  |  |  |  |  | IC50 ([1]; CYP2C19 IC50): 0.47 µM; IC50 ([2]; CYP2C9 IC50): 6.64 µM; IC50 ([3]; CYP1A2 IC50): 2.55 µM; IC50 ([4]; CYP3A4 IC50): 34.3 µM; IC50 ([5]; CYP2D6 IC50): 3.3 µM; Luciferase IC50 [6]: Inactive |
| O=S1OCC2C(CO1)C1(Cl)C(Cl)=C(Cl)C2(Cl)C1(Cl)Cl (stereo not drawn) [Endosulfan] |  |  |  |  |  |  | IC50 ([1]; CYP2C19 IC50): 3.19 µM; IC50 ([2]; CYP2C9 IC50): 37.2 µM; IC50 ([3]; CYP1A2 IC50): 35.8 µM; IC50 ([4]; CYP3A4 IC50): 0.39 µM; IC50 ([5]; CYP2D6 IC50): 18 µM; Luciferase IC50 [6]: Inactive |
| CCC(=O)O[C@H]1[C@H](O[C@@H]2[C@@H](C)[C@H](O[C@H]3C[C@@](C)(OC)[C@@H](O)[C@H](C)O3)[C@@H](C)C(=O)O[C@H](CC)[C@@](C)(O)[C@H](O)[C@@H](C)C(=O)[C@H](C)C[C@@]2(C)O)O[C@H](C)C[C@@H]1N(C)C [Erythromycin estolate] |  |  |  |  |  |  | IC50 [1]: 47.1 µM; IC50 [2]: 32.7 ± 12.3 µM; IC50 [3]: 33.5 ± 11 µM; IC50 [4]: 0.29 ± 0.04 µM; IC50 [5]: 30.5 ± 9.76 µM; IC50 [6]: 55 µM |
| CCOP(=S)(OCC)SCSP(=S)(OCC)OCC [Ethion] |  |  |  |  |  |  | IC50 ([1]; CYP2C19 IC50): 0.34 µM; IC50 [2]: 0.52 µM; IC50 ([3]; CYP1A2 IC50): 19.6 µM; IC50 ([4]; CYP3A4 IC50): 0.97 µM; IC50 [5]: 37 µM; Luciferase IC50 [6]: Inactive |
| CCOc1cc(C(C)(C)C)ccc1C1COC(c2c(F)cccc2F)=N1 (stereo not drawn) [Etoxazole] | 3.43 µM | 9.94 µM | 19.6 µM | 0.11 µM | 10.5 µM | Inactive |  |
| OC(c1ccc(Cl)cc1)(c1cncnc1)c1ccccc1Cl (stereo not drawn) [Fenarimol] | 0.24 µM | 6.1 µM | 71.4 µM | 0.17 µM | 35.6 µM | Inactive |  |
| N#CC(CCc1ccc(Cl)cc1)(Cn1cncn1)c1ccccc1 (stereo not drawn) [Fenbuconazole] | 0.17 µM | 1.94 µM | 35.8 µM | 0.05 µM | 38.6 µM | Inactive |  |
| COP(=S)(OC)Oc1ccc([N+](=O)[O-])c(C)c1 [Fenitrothion] | 0.55 µM | 6.12 µM | 1.04 µM | 8.48 µM | 35 µM |  | IC50 [6]: 67 µM |
